Experimental data: patent US9211296B2, “Therapeutic compounds for blocking DNA synthesis of POX viruses” (priority 2007, dated 2015)
pEC50, pIC50: −log10 of the molar value. Entries after “also recorded” stand apart in the source; their conditions may differ. Like-named read-outs stand apart in the source and are kept apart here.

How the values were obtained:
[1] = target: vaccinia E9 polymerase (Vaccinia virus (strain Western Reserve) (VACV) (Vaccinia virus (strain WR)), UniProt P06856); assay type: biochemical
[2] = target: triad (A20, D4, E9) (Vaccinia virus (strain Western Reserve) (VACV) (Vaccinia virus (strain WR)), UniProt P06856); assay type: biochemical
[3] = target: vaccinia triad (A20, D4, E9) (Vaccinia virus (strain Western Reserve) (VACV) (Vaccinia virus (strain WR)), UniProt P06856); assay type: biochemical
vaccinia virus [4] = test: microbe, parasite or virus in culture; assay type: cell-based; conditions: Orthopoxvirus vaccinia; for inhibition at 100 µM: BSC-1, 1 h, read-out: Inhibition of plaques
vaccinia virus [5] = assay type: cell-based
BSC-1 cells [6] = conditions: 100 μM
in vitro = conditions: African green monkey
vaccinia virus [7] = test: microbe, parasite or virus in culture; conditions: Orthopoxvirus vaccinia, BSC-1, 16 h, read-out: Plaque IC50
[8] = aCella-TOX GAPDH release cytotoxicity assay (viridicatumtoxin study); conditions: African green monkey, BSC-1 cells
[9] = target: vaccinia E9 DNA polymerase (Vaccinia virus (strain Western Reserve) (VACV) (Vaccinia virus (strain WR)), UniProt P06856); test: biochemical
BSC-1 cells [10] = test: Cell viability at plaque IC50, cell counting; conditions: at plaque IC50 (1.6 μM), 24 hrs
Description: (§1) The cell viability at the plaque IC50 value was performed using two independent methods, cell counting and MTT assay. For the cell counting method, cells were incubated overnight at 37° C. to sub-confluency in 48-well plates. The compounds dissolved in DMSO, were further diluted in media to a final concentration required to achieve the plaque IC50 value. The cells were incubated with the compounds for 24 hrs. The media was removed, the cells trypsinized and stained with tryphan blue, and counted. The MTT assay was also used to confirm cell viability at the plaque IC50. Cells were seeded at 1.5×10^4 cells/well in a 96-well plate and incubated overnight at 37° C. at 5% CO2. […] Each well received 20 μL of the MTT solution (5 mg MTT/mL PBS) and the plate was rocked for 5 min. The plates were incubated for an additional 5 h to metabolize MTT, after which the media was removed, and the plates were air dried. To resuspend the formazan, the end product of the MTT assay, 200 μL of DMSO was added to each well and the plates were rocked for 5-10 min. Absorbance was read at 560 nm.

BSC-1 cells [11] = test: Cell viability at plaque IC50, MTT assay; conditions: at plaque IC50 (1.6 μM), 16 h
Description: as §1

[12] = test system: vaccinia early gene E3 mRNA; assay type: cell-based, vaccinia virus
[13] = test system: vaccinia late gene F9 mRNA; assay type: cell-based, vaccinia virus
[14] = test system: vaccinia early E3 protein; assay type: cell-based, vaccinia virus
vaccinia late L1 protein = assay type: cell-based, vaccinia virus
vaccinia virus [15] = conditions: African green monkey
BSC-1 cells [16] = test: aCella-TOX GAPDH release cytotoxicity assay (viridicatumtoxin study); conditions: cells exposed to 200 μM

With `Oc1ccc(Cl)cc1Sc1cc(Cl)ccc1O` [NSC 55636, 2,2′-thiobis(4-chlorophenol)] the “Effect on E9 polymerase activity on the uniform template” value [1] was “prevented E9 from incorporating nucleotides on the uniform template; also recorded: inhibited the catalytic activity of E9 DNA polymerase; also recorded: blocked polymerase activity”, the “Targeted Activity (% Inhibition): Polymerase” value [1] was “Polymerase (74%)” and the “Effect on DNA synthesis by the triad on the distal template” value [2] was “also blocked the distal template”. For the same compound, the “Effect on synthesis of M13 DNA” value [3] was “blocked by increasing concentrations”, the inhibition at 100 µM (vaccinia virus [4]) was 95% and the pEC50 (vaccinia virus [4]; BSC-1, read-out: EC50 (concentration at which compound reduced plaques by 50%)) was 5.30. The “Blocking the replication of vaccinia virus in cells” value (shortened to “Blocking the replication”) (vaccinia virus [5]) was “effective in blocking the replication of vaccinia virus in cells”, the “Cell Cytotoxicity” value (BSC-1 cells [6]) was 14% and the “Cell Cytotoxicity” value (BSC-1 cells [6]; listed as 55636) was 14%. For the same compound, the CC50 (in vitro) was over 200 µM.

For `CN(C)C1C(O)=C(C(N)=O)C(=O)C2(O)C(O)=C3C(=O)c4c(O)cccc4C(C)(O)C3CC12.CS(=O)(=O)O` (centres unmarked) [NSC 69343, 4-(dimethylamino)-3,6,10,12,12a-pentahydroxy-6-methyl-1,11-dioxo-1,4,4a,5,5a,6,11,12a-octahydrotetracene-2-carboxamide methanesulfonate, reference compound], the inhibition at 100 µM (vaccinia virus [4]) was 40%, the “Blocking the replication” value (vaccinia virus [5]) was “effective in blocking the replication of vaccinia virus in cells” and the “Cell Cytotoxicity” value (BSC-1 cells [6]; methanesulfonate) was 17%. It also gave a pIC50 (vaccinia virus [7]) of under 3.70 and a CC50 [8] of over 200 µM.

In the case of `COc1cc(O)c2c(O)c3c(c4c2c1[C@]1(C4)C(C)=CCCC1(C)C)[C@H](O)[C@@]1(O)CC(O)=C(C(N)=O)C(=O)[C@@]1(O)C3=O` [Viridicatumtoxin, viridicatumtoxin], the pIC50 [9] was 4.20, the “% cell viability on plaque IC50, Cell count” value (BSC-1 cells [10]) was 92 ± 23% and the “% cell viability on plaque IC50, Cell count” value (BSC-1 cells [10]; listed as viridicatumtoxin) was “About 90%”. For the same compound, the “% cell viability on plaque IC50, MTT” value (BSC-1 cells [11]) was 83 ± 16%, the “% cell viability on plaque IC50, MTT” value (BSC-1 cells [11]; listed as viridicatumtoxin) was “about 85%” and the “Early E3 mRNA production” value [12] was “maximum at 3 h.p.i. and dropped back to low levels by 5 h.p.i”. The “Late F9 mRNA expression” value [13] was “only a marginal increase in F9 mRNA expression by 5 h.p.i”, the “Early E3 protein level” value [14] was “no significant difference in the levels of E3” and the “Late L1 protein level” value (vaccinia late L1 protein) was “significantly decreased”. For the same compound, the “Blocking the replication” value (vaccinia virus [5]) was “particularly effective”, the “Concentration at which the cells began to detach” value (vaccinia virus [15]) was at least 100 µM and the pIC50 (vaccinia virus [7]) was 5.80. The CC50 [8] was over 200 µM and the “Cytotoxicity at highest exposure” value (BSC-1 cells [16]) was “not cytotoxic”.
